In PMC8344021, “Discovery of Small Molecule Bak Activator for Lung Cancer Therapy” (Theranostics, 2021):

Columns and labels:
[1] = tested on: mitochondria isolated from A549 cells; experiment: Cyt c release from isolated mitochondria; type: biochemical, human; conditions: 1 μM, 30 min, 30 °C
Experimental: Figure 3 Bak is required for BKA-073 induction of mitochondrial priming, Cyt c release and apoptotic cell death. (A) Levels of Bak and Bax were analyzed by Western blot in parental, Bak ^-/-, Bax ^-/- or Bax/Bak double-knockout (DKO) A549 cells. (B-C) Parental, Bak ^-/-, Bax ^-/- or DKO A549 cells were treated with BKA-073 (1μM) for 16h or 72h, followed by analysis of dynamic BH3 profiling (B) or apoptotic cell death (C), respectively. Data represent the mean ± SD, n = 3 per group. ***P < 0.001, by 2-tailed t test. (D) Parental, Bak ^-/-, Bax ^-/- or DKO A549 cells were treated with BKA-073 (1μM) for 24 h. Mitochondrial and cytosolic fractions were isolated. Levels of Cyt c in these two fractions were analyzed by western blot. (E) Mitochondria were isolated from parental, Bak ^-/-, Bax ^-/- or DKO A549 cells. The isolated mitochondria were then treated with BKA-073 (1μM) in mitochondrial buffer for 30 min at 30 °C. After centrifugation, Cyt c in supernatant fraction (i.e. Cyt c release) and Cyt c in mitochondrial pellet were analyzed by western blot.
To further test whether Bak is required for BKA-073 induction of Cyt c release, A549 parental, Bak^-/-, Bax^-/- and DKO cells were treated with BKA-073 (1 μM) for 24h, followed by analysis of Cyt c release from mitochondria. […] After centrifugation at 13000 g for 5 min, Cyt c in the supernatant (i.e., Cyt c release) was analyzed by Western blot.

A549 cells = experiment: Dynamic BH3 profiling (DBP), mitochondrial priming; type: cell-based, human; conditions: 0, 0.25, 0.5, 0.75, 1.0 µM, 16h
Experimental: DBP using Bim peptide was carried out as described previously [24]-[26]. After treatment with BKA-073, venetoclax (ABT-199) or DMSO control for 16h, cells were collected, washed and resuspended at 2 x 10^6 cells/ mL in mannitol experimental buffer (MEB) [150 mM D-mannitol, 10 mM HEPES-KOH (pH 7.5), 50 mM KCl, 20 μM EGTA, 20 μM EDTA, 0.1% BSA, and 5 mM succinate] as described. One volume of the 4x cell suspension was added to one volume of a 4x dye solution containing 4 μM JC-1, […] oligomycin, 0.02% digitonin, 20mM β-mercaptoethanol in MEB. The 2x cell/dye mixture was allowed to rest for 5-10 min at room temperature to allow for permeabilization and JC-1 staining. A total of 15μl of the 2x cell/dye mixture was loaded into a 384-well plate that contained 15µL of Bim BH3 peptide (0.03, 0.1, 0.3, 1, and 3 μM) in MEB, shaken for 15 s inside the reader, and the fluorescence at 590 nm monitored every 5 min for 180 min at 32 °C. The dynamic BH3 profile (∆ % Priming) was calculated as described [24]-[26].
The BH3 death domain is known to be required for the proapoptotic function of Bak. […] The top 500 compounds determined to have the highest affinity for the BH3 domain were obtained from the NCI and tested for cytotoxicity in human lung cancer cells (i.e. H1299, H460 and A549 cells) by sulforhodamine B (SRB) assay for further screening as described, [36]. […]

SMILES: COc1ccc2nc3ccccc3c(NCCNCC(C)O)c2c1 (stereo not drawn) [BKA-073]
- Cyt c release from isolated mitochondria ([1]; mitochondria from A549 Bax-/- cells): induced Cyt c release
- Cyt c release from isolated mitochondria ([1]; mitochondria from A549 parental cells): induced Cyt c release
- induction of mitochondrial priming (∆% priming) (A549 cells): in a dose-dependent manner
